Results: patent US11077090B2, “Compounds and compositions and uses thereof” (Sunovion Pharmaceuticals Inc., priority 2016, dated 2021)
Like-named read-outs stand apart in the source and are kept apart here.

Test system: compound-treated mice
Test: Neuropharmacological assay (SmartCube): behavioral activity signature and minimal effective dose
Format: in vivo
Conditions: for minimal effective dose: Mus musculus, ip, MED = dose having 50% or more total activity; for AD: ADHD (probability of activity signature) / AG: analgesic (probability of activity signature) / AX: anxiolytic (probability of activity signature) / CE: cognitive enhancer (probability of activity signature) / DP: anti-depressant (probability of activity signature) / MS: mood stabilizer (probability of activity signature) / PS: anti-psychotic (probability of activity signature) / SD: sedative hypnotic (probability of activity signature) / UN: uncharacterized CNS activity (probability of activity signature): i.p. 15 min before test, most efficacious dose(s)
From the text: Neurosci. 2011 Sep. 9; 5:103 (doi: 10.3389/fnins.2011.00103) (“Roberds”). As reported in Roberds, because psychiatric diseases generally result from disorders of cell-cell communication or circuitry, intact systems are useful in detecting improvement in disease-relevant endpoints. These endpoints are typically behavioral in nature, often requiring human observation and interpretation. To facilitate testing of multiple compounds for behavioral effects relevant to psychiatric disease, PsychoGenics, Inc. (Tarrytown, N.Y., “PGI”) developed SmartCube™, an automated system in which behaviors of compound-treated mice are captured by digital video and analyzed with computer algorithms. (D. Brunner et al., Drug Discov. Today 2002, 7:S107-S112). PGI Analytical Systems uses data from SmartCube™ to compare the behavioral signature of a test compound to a database of behavioral signatures obtained using a large set of diverse reference compounds. (The composition of the database as well as validation of the method is further described in Roberds). In this way, the neuropharmacological effects of a test compound can be predicted by similarity to major classes of compounds, such as antipsychotics, anxiolytics and antidepressants.
The SmartCube™ system produces an activity signature indicating the probability that the activity of the test compound at the administered dose matches a given class of neuropharmacological agents. (See, e.g., Roberds, FIGS. 2 and 3). The test compound is simultaneously compared against multiple classes of agents; thus, a separate probability is generated for each behavioral effect measured (e.g., anxiolytic activity, analgesic activity, etc.). In the table below, these probabilities are reported for each behavioral effect measured as follows:
where LOQ is the limit of quantification.
Provided compounds were dissolved in a mixture of Pharmasolve™ (N-methyl-2-pyrrolidone), polyethylene glycol and propylene glycol, and were injected i.p. 15 min. before the behavioral test. For each compound, injections were administered at 3 different doses. For each behavioral effect measured, results for the most efficacious dose(s) are presented. In the table below, DP: anti-depressant; AX: anxiolytic; SD: sedative hypnotic; PS: anti-psychotic; MS: mood stabilizer; AD: ADHD; CE: cognitive enhancer; AG: analgesic; UN: uncharacterized CNS activity.
The potency of many of the compounds in the table was also determined in the SmartCube™ system. Test compounds were routinely examined at dose levels of 0.3, 1, 3, 10 and 30 mg per kg (mpk), although the dose range was increased or decreased if necessary to obtain a full dose response curve. A compound's minimal effective dose (MED) is a measure of the compounds potency. The MED was defined as the dose (in mpk) having 50% or more total activity in SmartCube.

[1] = read-out: Potency: minimal effective dose (MED)
[2] = read-out: Potency: minimal effective dose (MED), binned

SMILES | minimal effective dose [1] | AD: ADHD (probability of activity signature) | AG: analgesic (probability of activity signature) | AX: anxiolytic (probability of activity signature) | CE: cognitive enhancer (probability of activity signature) | DP: anti-depressant (probability of activity signature) | MS: mood stabilizer (probability of activity signature) | PS: anti-psychotic (probability of activity signature) | SD: sedative hypnotic (probability of activity signature) | UN: uncharacterized CNS activity (probability of activity signature) | minimal effective dose [2]
Cc1ccc2c(c1C)C(NCCO)COC2.Cl (centres unmarked) [Example 56] | 10 to 30 mg/kg | + (LOQ ≤ + <5%) | +++ (25% ≤ +++ <50%) | ++ (5% ≤ ++ <25%) | ++ (5% ≤ ++ <25%) | ++ (5% ≤ ++ <25%) | + (LOQ ≤ + <5%) | + (LOQ ≤ + <5%) | + (LOQ ≤ + <5%) | + (LOQ ≤ + <5%) | 
COc1cccc2c1CO[C@@H](C)[C@H]2N.Cl [Example 234] |  | + (LOQ ≤ + <5%) | ++ (5% ≤ ++ <25%) | +++ (25% ≤ +++ <50%) | ++ (5% ≤ ++ <25%) | + (LOQ ≤ + <5%) | + (LOQ ≤ + <5%) | ++ (5% ≤ ++ <25%) | ++ (5% ≤ ++ <25%) | ++ (5% ≤ ++ <25%) | 10 to 30 mg/kg
Cl.NC1CCOCc2cccc(Cl)c21 (centres unmarked) [Example 41] | 10 to 30 mg/kg | + (LOQ ≤ + <5%) | ++ (5% ≤ ++ <25%) | ++ (5% ≤ ++ <25%) | ++ (5% ≤ ++ <25%) | ++ (5% ≤ ++ <25%) | + (LOQ ≤ + <5%) | + (LOQ ≤ + <5%) | + (LOQ ≤ + <5%) | +++ (25% ≤ +++ <50%) | 
CNC1COCc2ccccc21.Cl (centres unmarked) [Example 54, N-Methylisochroman-4-amine hydrochloride] | 10 to 30 mg/kg | + (LOQ ≤ + <5%) | ++ (5% ≤ ++ <25%) | ++ (5% ≤ ++ <25%) | + (LOQ ≤ + <5%) | ++ (5% ≤ ++ <25%) | + (LOQ ≤ + <5%) | ++ (5% ≤ ++ <25%) | + (LOQ ≤ + <5%) | +++ (25% ≤ +++ <50%) | 
Cc1ccc2c(c1)[C@@H](N)CCOC2 (single isomer, unassigned) [Example 116] | 3 to 10 mg/kg | + (LOQ ≤ + <5%) | ++ (5% ≤ ++ <25%) | ++ (5% ≤ ++ <25%) | ++ (5% ≤ ++ <25%) | ++ (5% ≤ ++ <25%) | + (LOQ ≤ + <5%) | ++ (5% ≤ ++ <25%) | +++ (25% ≤ +++ <50%) | +++ (25% ≤ +++ <50%) | 
Cc1ccc(Cl)c2c1C(N)COC2.Cl (centres unmarked) [Example 48, 8-Chloro-5-methylisochroman-4-amine hydrochloride] | < 3 mg/kg | + (LOQ ≤ + <5%) | ++ (5% ≤ ++ <25%) | +++ (25% ≤ +++ <50%) | +++ (25% ≤ +++ <50%) | + (LOQ ≤ + <5%) | + (LOQ ≤ + <5%) | ++ (5% ≤ ++ <25%) | ++ (5% ≤ ++ <25%) | ++ (5% ≤ ++ <25%) | 
CC[C@H]1OCc2ccc(C)cc2[C@@H]1N (single isomer, unassigned) [Example 177] |  | + (LOQ ≤ + <5%) | ++ (5% ≤ ++ <25%) | ++++ (50% ≤ ++++) | ++ (5% ≤ ++ <25%) | + (LOQ ≤ + <5%) | + (LOQ ≤ + <5%) | ++ (5% ≤ ++ <25%) | + (LOQ ≤ + <5%) | ++++ (50% ≤ ++++) | < 3 mg/kg
CCN(C)C(=O)Oc1ccc2c(c1)[C@H](N(C)C)[C@@H](C)OC2.Cl [Example 288] |  | + (LOQ ≤ + <5%) | + (LOQ ≤ + <5%) | + (LOQ ≤ + <5%) | + (LOQ ≤ + <5%) | ++ (5% ≤ ++ <25%) | + (LOQ ≤ + <5%) | + (LOQ ≤ + <5%) | ++ (5% ≤ ++ <25%) | + (LOQ ≤ + <5%) | > 30 mg/kg
CC1(N)COCc2ccc(F)cc21.Cl (centres unmarked) [Example 68, 6-Fluoro-4-methylisochroman-4-amine hydrochloride] | 10 to 30 mg/kg | + (LOQ ≤ + <5%) | ++ (5% ≤ ++ <25%) | ++ (5% ≤ ++ <25%) | ++ (5% ≤ ++ <25%) | ++ (5% ≤ ++ <25%) | + (LOQ ≤ + <5%) | ++ (5% ≤ ++ <25%) | + (LOQ ≤ + <5%) | ++ (5% ≤ ++ <25%) | 
C[C@H]1OCc2cccc(Cl)c2[C@@H]1N [Example 159] |  | + (LOQ ≤ + <5%) | + (LOQ ≤ + <5%) | +++ (25% ≤ +++ <50%) | + (LOQ ≤ + <5%) | +++ (25% ≤ +++ <50%) | + (LOQ ≤ + <5%) | + (LOQ ≤ + <5%) | + (LOQ ≤ + <5%) | ++ (5% ≤ ++ <25%) | 3 to 10 mg/kg
Cc1ccc(C)c2c1COC[C@@H]2N (single isomer, unassigned) [Example 166] |  | + (LOQ ≤ + <5%) | + (LOQ ≤ + <5%) | ++ (5% ≤ ++ <25%) | ++ (5% ≤ ++ <25%) | + (LOQ ≤ + <5%) | + (LOQ ≤ + <5%) | ++ (5% ≤ ++ <25%) | ++ (5% ≤ ++ <25%) | ++++ (50% ≤ ++++) | 3 to 10 mg/kg
